# Test results from patent US20260022142A1, “MACROCYCLIC IMMUNOMODULATORS” (Bristol-Myers Squibb Company, priority 2022, published 2026).
# Bridge positions count the residues as written; N and C are the ends. Square brackets hold non-standard residues; d marks the D form. Peptide text beside a SMILES is read from it. * marks the point of attachment. ξ: configuration not given here. Phe(4-CONH2) = NC(=O)c1ccc(C[C@H](N)C(=O)O)cc1; Bip = N[C@@H](Cc1ccc(-c2ccccc2)cc1)C(=O)O; Phe(3-Me) = Cc1cccc(C[C@H](N)C(=O)O)c1; Cyclopropanecarbonyl = O=C(C1CC1)*; Val(3-OH) = CC(C)(O)[C@H](N)C(=O)O; hArg = N=C(N)NCCCC[C@H](N)C(=O)O; 2Pal = N[C@@H](Cc1ccccn1)C(=O)O; Cha = N[C@@H](CC1CCCCC1)C(=O)O; Cit = NC(=O)NCCC[C@H](N)C(=O)O; Thr(3ξ) = CC(O)[C@H](N)C(=O)O; Tle = CC(C)(C)[C@H](N)C(=O)O; 12Ado = NCCCCCCCCCCCC(=O)O; hSer = N[C@@H](CCO)C(=O)O; Carboxymethyl = O=C(O)C*; Orn = NCCC[C@H](N)C(=O)O; Aun = NCCCCCCCCCCC(=O)O; Dab = NCC[C@H](N)C(=O)O; Dap = NC[C@H](N)C(=O)O; AEEA = NCCOCCOCC(=O)O
# Target: T1, PD-1/PD-L1 interaction (PE-labeled human PD-L1-Ig binding to Jurkat cell line over-expressing human PD-1) (Homo sapiens, UniProt Q15116)
# T1 construct: expressed in transfected cells; host or cells: Jurkat
# T1 sequence (Q15116 25-288): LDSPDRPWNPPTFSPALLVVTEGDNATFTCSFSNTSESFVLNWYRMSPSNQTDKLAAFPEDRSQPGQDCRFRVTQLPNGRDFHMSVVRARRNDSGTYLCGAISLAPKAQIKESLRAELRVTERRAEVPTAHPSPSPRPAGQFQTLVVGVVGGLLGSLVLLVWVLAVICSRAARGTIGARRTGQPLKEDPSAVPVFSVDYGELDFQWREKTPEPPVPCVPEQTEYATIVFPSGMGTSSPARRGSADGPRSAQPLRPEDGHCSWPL
# Experiment: Jurkat-PD-1 Cell Binding High-Content Screening Assay (CBA)
# Format: cell-based
# Settings: Jurkat cell line over-expressing human PD-1; PE-labeled PD-L1-Ig 20 nM final; read-out: Jurkat hPD1-PDL1 IC50
# Summary of the method: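 First, compound is added to PD-1-expressing Jurkat cells in serum-containing DMEM and left 2 h at 37° C. Next, PE-conjugated PD-L1-Ig is introduced at 20 nM final concentration for 1 hour. Finally, cells are fixed in 4% paraformaldehyde with Hoechst 33342, washed and imaged.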
row,IC50,SMILES
1,11.8 nM,Cc1cccc(C[C@@H]2NC(=O)[C@H](CC(=O)O)NC(=O)[C@H](Cc3ccc(OCC(=O)O)cc3)NC(=O)[C@H](CCCNC(=N)N)NC(=O)CSC[C@@H](C(=O)N[C@@H](CCCCN)C(=O)NCCCCCCCCCCC(=O)O)NC(=O)[C@H](CCCN)NC(=O)[C@H](C(C)C)NC(=O)[C@H](CC3CCCCC3)NC(=O)[C@H](CCN)NC(=O)[C@@H](CC(C)C)NC(=O)[C@H](CCCN)NC(=O)[C@H](CCCNC(N)=O)NC(=O)[C@H](Cc3ccc(-c4ccccc4)cc3)NC(=O)[C@H](C(C)C)NC2=O)c1 [Compound 3474] ({CH2CO}-RY(Carboxymethyl)D[Phe(3-Me)]V[Bip][Cit][Orn][dL][Dab][Cha]V[Orn]CK[Aun]-OH; thioether N-14)
2,13.2 nM,CC(C)C[C@H]1NC(=O)[C@H](CCN)NC(=O)[C@H](C(C)C)NC(=O)[C@H](Cc2ccc(-c3ccccc3)cc2)NC(=O)[C@H](C(C)C)NC(=O)[C@H](Cc2c[nH]c3ccccc23)NC(=O)[C@H](CC(=O)O)NC(=O)[C@H](Cc2ccc(OCC(=O)O)cc2)NC(=O)[C@H](CCCCNC(=N)N)NC(=O)CSC[C@@H](C(=O)N[C@@H](CCN)C(=O)NCCCCCCCCCCC(=O)O)NC(=O)[C@H](CCCCN)NC(=O)[C@H](C(C)C)NC(=O)[C@H](CC2CCCCC2)NC(=O)[C@H](CCN)NC1=O [Compound 3255] ({CH2CO}-[hArg]Y(Carboxymethyl)DWV[Bip]V[Dab][dL][Dab][Cha]VKC[Dab][Aun]-OH; thioether N-14)
3,54.9 nM,Cc1cccc(C[C@@H]2NC(=O)[C@H](CC(=O)O)NC(=O)[C@H](Cc3ccc(OCC(=O)O)cc3)NC(=O)[C@H](CN)NC(=O)CSC[C@@H](C(=O)N[C@@H](CCN)C(=O)NCCCCCCCCCCC(=O)O)NC(=O)[C@H](Cc3ccccn3)NC(=O)[C@H](C(C)C)NC(=O)[C@H](CC(C)C)NC(=O)[C@H](CCN)NC(=O)[C@@H](CC(C)C)NC(=O)[C@H](CCCN)NC(=O)[C@H](Cc3ccc(O)cc3)NC(=O)[C@H](Cc3ccc(-c4ccccc4)cc3)NC(=O)[C@H](C(C)C)NC2=O)c1 [Compound 2763] ({CH2CO}-[Dap]Y(Carboxymethyl)D[Phe(3-Me)]V[Bip]Y[Orn][dL][Dab]LV[2Pal]C[Dab][Aun]-OH; thioether N-14)
4,6.8 nM,Cc1cccc(C[C@@H]2NC(=O)[C@H](CC(=O)O)NC(=O)[C@H](Cc3ccc(OCC(=O)O)cc3)NC(=O)[C@H](CCN)NC(=O)CSC[C@@H](C(=O)N[C@@H](CCN)C(=O)NCCCCCCCCCCC(=O)O)NC(=O)[C@H](CO)NC(=O)[C@H](C(C)(C)O)NC(=O)[C@H](CC3CCCCC3)NC(=O)[C@H](CCN)NC(=O)[C@@H](CC(C)C)NC(=O)[C@H](CCCN)NC(=O)[C@H](Cc3ccc(C(N)=O)cc3)NC(=O)[C@H](Cc3ccc(-c4ccccc4)cc3)NC(=O)[C@H](Cc3ccc(OCC(=O)O)cc3)NC2=O)c1 [Compound 3604] ({CH2CO}-[Dab]Y(Carboxymethyl)D[Phe(3-Me)]Y(Carboxymethyl)[Bip][Phe(4-CONH2)][Orn][dL][Dab][Cha][Val(3-OH)]SC[Dab][Aun]-OH; thioether N-14)
5,16.6 nM,CC(=O)NCCCC[C@@H]1NC(=O)[C@H](Cc2ccc(-c3ccccc3)cc2)NC(=O)[C@H](Cc2ccc(O)cc2)NC(=O)[C@H](Cc2cccc(C)c2)NC(=O)[C@H](CC(=O)O)NC(=O)[C@H](Cc2ccc(OCC(=O)O)cc2)NC(=O)[C@H](CCCCNC(=N)N)NC(=O)CSC[C@@H](C(=O)N[C@@H](CCN)C(=O)NCCCCCCCCCCC(=O)O)NC(=O)[C@H](C(C)O)NC(=O)[C@H](C(C)C)NC(=O)[C@H](CC2CCCCC2)NC(=O)[C@H](CCN)NC(=O)[C@@H](CC(C)C)NC(=O)[C@H](CCCN)NC1=O (stereo partly drawn) [Compound 3505] ({CH2CO}-[hArg]Y(Carboxymethyl)D[Phe(3-Me)]Y[Bip]K(Ac)[Orn][dL][Dab][Cha]V[Thr(3ξ)]C[Dab][Aun]-OH; thioether N-14)
6,26.1 nM,Cc1cccc(C[C@@H]2NC(=O)[C@H](CC(=O)O)NC(=O)[C@H](Cc3ccc(OCC(=O)O)cc3)NC(=O)[C@H](CCCNC(=O)C3CC3)NC(=O)CSC[C@@H](C(=O)N[C@@H](CCCN)C(=O)N[C@@H](CO)C(=O)NCCCCCCCCCCCC(=O)O)NC(=O)[C@H](C(C)O)NC(=O)[C@H](C(C)C)NC(=O)[C@H](CC3CCCCC3)NC(=O)[C@H](CCN)NC(=O)[C@@H](CC(C)C)NC(=O)[C@H](CCCN)NC(=O)[C@H](CCCNC(=N)N)NC(=O)[C@H](Cc3ccc(-c4ccccc4)cc3)NC(=O)[C@H](C(C)C)NC2=O)c1 (stereo partly drawn) [Compound 3572] ({CH2CO}-[Orn](Cyclopropanecarbonyl)Y(Carboxymethyl)D[Phe(3-Me)]V[Bip]R[Orn][dL][Dab][Cha]V[Thr(3ξ)]C[Orn]S[12Ado]-OH; thioether N-14)
7,18.2 nM,Cc1cccc(C[C@@H]2NC(=O)[C@H](CC(=O)O)NC(=O)[C@H](Cc3ccc(OCC(=O)O)cc3)NC(=O)[C@H](CN)NC(=O)CSC[C@@H](C(=O)N[C@@H](C)C(=O)N[C@@H](CCN)C(=O)NCCCCCCCCCCC(=O)O)NC(=O)[C@H]([C@@H](C)O)NC(=O)[C@H](C(C)C)NC(=O)[C@H](CC3CCCCC3)NC(=O)[C@H](Cc3cnc[nH]3)NC(=O)[C@@H](CC(C)C)NC(=O)[C@H](CCCN)NC(=O)[C@H](C(C)C)NC(=O)[C@H](Cc3ccc(-c4ccccc4)cc3)NC(=O)[C@H](C(C)C)NC2=O)c1 [Compound 1112] ({CH2CO}-[Dap]Y(Carboxymethyl)D[Phe(3-Me)]V[Bip]V[Orn][dL]H[Cha]VTCA[Dab][Aun]-OH; thioether N-14)
8,33.5 nM,Cc1cccc(C[C@@H]2NC(=O)[C@H](CC(=O)O)NC(=O)[C@H](Cc3ccc(OCC(=O)O)cc3)NC(=O)[C@H](CN)NC(=O)CSC[C@@H](C(=O)N[C@@H](CCCN)C(=O)N[C@@H](CO)C(=O)NCCCCCCCCCCCC(=O)O)NC(=O)[C@H](C(C)O)NC(=O)[C@H](CCO)NC(=O)[C@H](CC3CCCCC3)NC(=O)[C@H](CCN)NC(=O)[C@@H](CC(C)C)NC(=O)[C@H](CCCN)NC(=O)[C@H](CCCNC(N)=O)NC(=O)[C@H](Cc3ccc(-c4ccccc4)cc3)NC(=O)[C@H](C(C)C)NC2=O)c1 (stereo partly drawn) [Compound 3587] ({CH2CO}-[Dap]Y(Carboxymethyl)D[Phe(3-Me)]V[Bip][Cit][Orn][dL][Dab][Cha][hSer][Thr(3ξ)]C[Orn]S[12Ado]-OH; thioether N-14)
9,87.8 nM,Cc1cccc(C[C@@H]2NC(=O)[C@H](CC(=O)O)NC(=O)[C@H](Cc3ccc(OCC(=O)O)cc3)NC(=O)[C@H](CCCNC(=N)N)NC(=O)CSC[C@@H](C(=O)N[C@H](CC(N)=O)C(=O)NCCCCCCCCCCC(=O)O)NC(=O)[C@H](CCC(N)=O)NC(=O)[C@H](C(C)(C)C)NC(=O)[C@H](CC3CCCCC3)NC(=O)[C@H](CCN)NC(=O)[C@@H](CC(C)C)NC(=O)[C@H](CCCN)NC(=O)[C@H](Cc3ccc(OCC(=O)O)cc3)NC(=O)[C@H](Cc3ccc(-c4ccccc4)cc3)NC(=O)[C@H](Cc3ccc(OCC(=O)O)cc3)NC2=O)c1 [Compound 3528] ({CH2CO}-RY(Carboxymethyl)D[Phe(3-Me)]Y(Carboxymethyl)[Bip]Y(Carboxymethyl)[Orn][dL][Dab][Cha][Tle]QC[dN][Aun]-OH; thioether N-14)
10,8.6 nM,Cc1cccc(C[C@@H]2NC(=O)[C@H](CC(=O)O)NC(=O)[C@H](Cc3ccc(OCC(=O)O)cc3)NC(=O)[C@H](CN)NC(=O)CSC[C@@H](C(=O)NCCOCCOCC(=O)N[C@@H](CCN)C(=O)NCCCCCCCCCCC(=O)O)NC(=O)[C@H](CCCN)NC(=O)[C@H](C(C)C)NC(=O)[C@H](CC3CCCCC3)NC(=O)[C@H](CCN)NC(=O)[C@@H](CC(C)C)NC(=O)[C@H](CCCN)NC(=O)[C@H](CCCNC(N)=O)NC(=O)[C@H](Cc3ccc(-c4ccccc4)cc3)NC(=O)[C@H](C(C)C)NC2=O)c1 [Compound 2629] ({CH2CO}-[Dap]Y(Carboxymethyl)D[Phe(3-Me)]V[Bip][Cit][Orn][dL][Dab][Cha]V[Orn]C[AEEA][Dab][Aun]-OH; thioether N-14)
11,11 nM,Cc1cccc(C[C@@H]2NC(=O)[C@H](CC(=O)O)NC(=O)[C@H](Cc3ccc(OCC(=O)O)cc3)NC(=O)[C@H](CN)NC(=O)CSC[C@@H](C(=O)N[C@@H](CCN)C(=O)NCCOCCOCC(=O)NCCCCCCCCCCC(=O)O)NC(=O)[C@H](CCCNC(=N)N)NC(=O)[C@H](C(C)C)NC(=O)[C@H](CC3CCCCC3)NC(=O)[C@H](CCN)NC(=O)[C@@H](CC(C)C)NC(=O)[C@H](CCCN)NC(=O)[C@H](CCC(=O)O)NC(=O)[C@H](Cc3ccc(-c4ccccc4)cc3)NC(=O)[C@H](C(C)C)NC2=O)c1 [Compound 2662] ({CH2CO}-[Dap]Y(Carboxymethyl)D[Phe(3-Me)]V[Bip]E[Orn][dL][Dab][Cha]VRC[Dab][AEEA][Aun]-OH; thioether N-14)
12,32 nM,CC(C)C[C@H]1NC(=O)[C@H](CCCN)NC(=O)[C@H](C(C)C)NC(=O)[C@H](Cc2ccc(-c3ccccc3)cc2)NC(=O)[C@H](C(C)C)NC(=O)[C@H](Cc2c[nH]c3ccccc23)NC(=O)[C@H](CC(=O)O)NC(=O)[C@H](Cc2ccc(OCC(=O)O)cc2)NC(=O)[C@H](C(C)O)NC(=O)CSC[C@@H](C(=O)N[C@@H](CCN)C(=O)NCCCCCCCCCCC(=O)O)NC(=O)[C@H](CO)NC(=O)[C@H](CCCCN)NC(=O)[C@H](CC2CCCCC2)NC(=O)[C@H](CCN)NC1=O (stereo partly drawn) [Compound 3666] ({CH2CO}-[Thr(3ξ)]Y(Carboxymethyl)DWV[Bip]V[Orn][dL][Dab][Cha]KSC[Dab][Aun]-OH; thioether N-14)
13,35.9 nM,CC(C)C[C@H]1NC(=O)[C@H](CCCN)NC(=O)[C@H](C(C)C)NC(=O)[C@H](Cc2ccc(-c3ccccc3)cc2)NC(=O)[C@H](C(C)C)NC(=O)[C@H](Cc2c[nH]c3ccccc23)NC(=O)[C@H](CC(=O)O)NC(=O)[C@H](Cc2ccc(OCC(=O)O)cc2)NC(=O)[C@H](CN)NC(=O)CSC[C@@H](C(=O)NCCOCCOCC(=O)N[C@H](CC(=O)O)C(=O)NCCCCCCCCCCC(=O)O)NC(=O)[C@H]([C@@H](C)O)NC(=O)[C@H](C(C)C)NC(=O)[C@H](CC2CCCCC2)NC(=O)[C@H](Cc2cnc[nH]2)NC1=O [Compound 1132] ({CH2CO}-[Dap]Y(Carboxymethyl)DWV[Bip]V[Orn][dL]H[Cha]VTC[AEEA][dD][Aun]-OH; thioether N-14)
